Data from patent US20230348564A1, “ANTI-CANCER PROTEINS” (UNICHEM LABORATORIES LTD, priority 2020, published 2023).

How the values were obtained:
[1] = tested on: Glioblastoma (LN-18); assay: cytotoxicity in Brain Tumor Cell lines by MTT assay; format: cell-based, Human; details: 0.1 Mm-100 μM, 72 h
Protocol: (§1) The SEQ ID NO. […] Untreated cells were used as control. […] Cells were incubated for 3 h at 37° C.

[2] = tested on: Neuroblastoma (SH-SY5Y); assay: as above; format: cell-based, Human; details: 0.1 Mm-100 μM, 72 h
Protocol: as §1

[3] = tested on: Glioma (C6); assay: as above; format: cell-based, Rat; details: 0.1 Mm-100 μM, 72 h
Protocol: as §1

[4] = tested on: Contactin-1; assay: biomarker levels in IOMM-Lee by multiplex analysis; format: cell-based, Human
From the text: (§2) Effect of SEQ ID No 2 on the expression of following 7 biomarkers were estimated in Human Meningioma cell line (IOMM-Lee) using multiplex analysis: TNF-alpha, VEGF, VEGFR2, HGF, HGFR/c-MET, PDGF-BB, and Contactin-1. Levels of another marker, Notch-1 were also estimated by ELISA in the same cell line. These 8 biomarkers play very crucial role in the pathogenesis and progression of Brain Tumor. […] Supernatants were collected and the levels of these 8 markers were investigated.

[5] = tested on: HGFR/c-MET; assay: biomarker levels in IOMM-Lee by multiplex analysis; format: cell-based, Human
From the text: as §2

[6] = tested on: HGF; assay: biomarker levels in IOMM-Lee by multiplex analysis; format: cell-based, Human
From the text: as §2

[7] = tested on: PDGF-BB; assay: biomarker levels in IOMM-Lee by multiplex analysis; format: cell-based, Human
From the text: as §2

[8] = tested on: TNF-α; assay: biomarker levels in IOMM-Lee by multiplex analysis; format: cell-based, Human
From the text: as §2

[9] = tested on: VEGFR2; assay: biomarker levels in IOMM-Lee by multiplex analysis; format: cell-based, Human
From the text: as §2

[10] = tested on: VEGF; assay: biomarker levels in IOMM-Lee by multiplex analysis; format: cell-based, Human
From the text: as §2

[11] = tested on: Notch-1; assay: biomarker levels in IOMM-Lee by ELISA; format: cell-based, Human; details: 1 μM
From the text: as §2

[12] = tested on: A549 (Human lung carcinoma); assay: Calcein AM cytotoxicity assay; details: SEQ ID 2 80 μg/mL, doxorubicin 100 μM; 48h
Protocol: (§3) All the cancer cell lines were procured from National Centre for Cell Science, Pune (India). The cell lines were maintained under conditions as described in Table 21 below. The cell lines were sub-cultured by trypsinization followed by splitting the cell suspension into fresh flasks and supplementing with fresh culture medium.
(§4) All the cell lines were grown in specified media at 37° C. with 95% Humidity and […].
(§5) The cells were trypsinized, counted by Trypan blue method in Neuebauer's Chamber and plated in wells of flat bottom 96-well plate (dark walled plate, flat bottom) at the density corresponding to 10×10^3 cells/well/180 μl medium.
(§6) Following overnight incubation, the cells were treated with test item (20 μL) at concentrations ranging from 2.5-80 μg/mL, so that the total volume in each well is 200 μL.
(§7) The cells were incubated with the test items or positive control for a time period of 48h. Following incubation, the cell cytotoxicity was estimated using Calcein AM Cell Viability Assay Kit from R&D systems (Cat No. 4892-010-K).
(§8) Fluorescence was measured at 485 nm (excitation/528 run (emission) spectra using Synergy HT micro plate reader.
(§9) Percentage cytotoxicity wrt untreated cells was calculated using formula:
(§10) Cytotoxicity=[(RFUuntreated−RFUsample)/RFUuntreated]*100
(§11) RFU: relative fluorescence units
(§12) IC50 value was calculated using Graph-Pad Prism version 4.01 software.

[13] = tested on: AGS (Human stomach adenocarcinoma); assay: Calcein AM cytotoxicity assay; details: SEQ ID 2 80 μg/mL, doxorubicin 100 μM; 48h
Protocol: as §3, §4, §5, §6, §7, §8, §9, §10, §11, §12

[14] = tested on: HT-29 (Human Colorectal adenocarcinoma); assay: Calcein AM cytotoxicity assay; details: SEQ ID 2 80 μg/mL, doxorubicin 100 μM; 48h
Protocol: as §3, §4, §5, §6, §7, §8, §9, §10, §11, §12

[15] = tested on: Human Primary mammary epithelial (HMEC) cells; assay: Calcein AM cytotoxicity assay; details: SEQ ID 2 80 μg/mL, doxorubicin 100 μM; 48h
Protocol: as §3, §4, §5, §6, §7, §8, §9, §10, §11, §12

[16] = tested on: KB (Human cervical carcinoma); assay: Calcein AM cytotoxicity assay; details: SEQ ID 2 80 μg/mL, doxorubicin 100 μM; 48h
Protocol: as §3, §4, §5, §6, §7, §8, §9, §10, §11, §12

[17] = tested on: MCF-10A (Human mammary epithelial cells); assay: Calcein AM cytotoxicity assay; details: SEQ ID 2 80 μg/mL, doxorubicin 100 μM; 48h
Protocol: as §3, §4, §5, §6, §7, §8, §9, §10, §11, §12

[18] = tested on: MCF-7 (Human breast adenocarcinoma); assay: Calcein AM cytotoxicity assay; details: SEQ ID 2 80 μg/mL, doxorubicin 100 μM; 48h
Protocol: as §3, §4, §5, §6, §7, §8, §9, §10, §11, §12

[19] = tested on: PA-1 (Human Ovary carcinoma); assay: Calcein AM cytotoxicity assay; details: SEQ ID 2 80 μg/mL, doxorubicin 100 μM; 48h
Protocol: as §3, §4, §5, §6, §7, §8, §9, §10, §11, §12

[20] = tested on: PBMCs (Peripheral blood mononuclear cells); assay: Calcein AM cytotoxicity assay; details: SEQ ID 2 80 μg/mL, doxorubicin 100 μM; 48h
Protocol: as §3, §4, §5, §6, §7, §8, §9, §10, §11, §12

[21] = tested on: PC-3 (Human Prostate Cancer); assay: Calcein AM cytotoxicity assay; details: SEQ ID 2 80 μg/mL, doxorubicin 100 μM; 48h
Protocol: as §3, §4, §5, §6, §7, §8, §9, §10, §11, §12

[22] = tested on: SK-Mel-28 (Human melanoma); assay: Calcein AM cytotoxicity assay; details: SEQ ID 2 80 μg/mL, doxorubicin 100 μM; 48h
Protocol: as §3, §4, §5, §6, §7, §8, §9, §10, §11, §12

[23] = tested on: SKOV-3 (Human Ovary adenocarcinoma); assay: Calcein AM cytotoxicity assay; details: SEQ ID 2 80 μg/mL, doxorubicin 100 μM; 48h
Protocol: as §3, §4, §5, §6, §7, §8, §9, §10, §11, §12

[24] = tested on: SW620 (Human Colorectal adenocarcinoma); assay: Calcein AM cytotoxicity assay; details: SEQ ID 2 80 μg/mL, doxorubicin 100 μM; 48h
Protocol: as §3, §4, §5, §6, §7, §8, §9, §10, §11, §12

[25] = tested on: SiHa (Human cervix squamous cell carcinoma); assay: Calcein AM cytotoxicity assay; details: SEQ ID 2 80 μg/mL, doxorubicin 100 μM; 48h
Protocol: as §3, §4, §5, §6, §7, §8, §9, §10, §11, §12

[26] = tested on: THP-1 (Human acute monocytic leukemia); assay: Calcein AM cytotoxicity assay; details: SEQ ID 2 80 μg/mL, doxorubicin 100 μM; 48h
Protocol: as §3, §4, §5, §6, §7, §8, §9, §10, §11, §12

[27] = tested on: ZR-75-1 (Human ductal carcinoma); assay: Calcein AM cytotoxicity assay; details: SEQ ID 2 80 μg/mL, doxorubicin 100 μM; 48h
Protocol: as §3, §4, §5, §6, §7, §8, §9, §10, §11, §12

[28] = tested on: Glioblastoma (U251MG); assay: cytotoxicity in Brain Tumor Cell lines by MTT assay; details: 0.1 Mm-100 μM, 72 h
[29] = tested on: Astrocytoma (U87MG); assay: as above; details: 0.1 Mm-100 μM, 72 h

`COc1cccc2c1C(=O)c1c(O)c3c(c(O)c1C2=O)C[C@@](O)(C(=O)CO)C[C@@H]3O[C@H]1C[C@H](N)[C@H](O)[C@H](C)O1` [Doxorubicin, reference compound] was tested, and the “% of cytotoxicity” value [1] was 6.5%-47.7%, the “% of cytotoxicity” value [2] was 21.7%-61.7% and the “% of cytotoxicity” value [3] was 57.8%-86.3%. For the same molecule, the “Percentage inhibition on levels of Contactin-1” value ([4]; 1 μM) was 50%, the “Percentage inhibition on levels of Contactin-1” value ([4]; 10 μM) was 23.3% and the “Percentage inhibition on levels of HGFR/c-MET” value ([5]; 1 μM) was 45.5%. The “Percentage inhibition on levels of HGFR/c-MET” value ([5]; 10 μM) was 55.2%, the “Percentage inhibition on levels of HGF” value ([6]; 1 μM) was 45.3% and the “Percentage inhibition on levels of HGF” value ([6]; 10 μM) was 84%. For the same molecule, the “Percentage inhibition on levels of PDGF-BB” value ([7]; 1 μM) was 12%, the “Percentage inhibition on levels of PDGF-BB” value ([7]; 10 μM) was 100% and the “Percentage inhibition on levels of TNF-α” value ([8]; 1 μM) was 67.8%. For the same molecule, the “Percentage inhibition on levels of TNF-α” value ([8]; 10 μM) was 42.3%, the “Percentage inhibition on levels of VEGFR2” value ([9]; 1 μM) was 38.2% and the “Percentage inhibition on levels of VEGFR2” value ([9]; 10 μM) was 50.1%. The “Percentage inhibition on levels of VEGF” value ([10]; 1 μM) was 53%, the “Percentage inhibition on levels of VEGF” value ([10]; 10 μM) was 93.4% and the “Percentage inhibition on levels of Notch-1” value [11] was 8%. The “Cytotoxicity at highest concentration tested” value [12] was 78.4%, the “Cytotoxicity at highest concentration tested” value [13] was 81.0% and the “Cytotoxicity at highest concentration tested” value [14] was 75.0%. The “Cytotoxicity at highest concentration tested” value [15] was 87.6%, the “Cytotoxicity at highest concentration tested” value [16] was 92.0% and the “Cytotoxicity at highest concentration tested” value [17] was 93.8%. For the same molecule, the “Cytotoxicity at highest concentration tested” value [18] was 60.7%, the “Cytotoxicity at highest concentration tested” value [19] was 82.3% and the “Cytotoxicity at highest concentration tested” value [20] was 64.3%. The “Cytotoxicity at highest concentration tested” value [21] was 75.3%, the “Cytotoxicity at highest concentration tested” value [22] was 65.9% and the “Cytotoxicity at highest concentration tested” value [23] was 61.74%. For the same molecule, the “Cytotoxicity at highest concentration tested” value [24] was 93.5%, the “Cytotoxicity at highest concentration tested” value [25] was 87.2% and the “Cytotoxicity at highest concentration tested” value [26] was 33.6%. The “Cytotoxicity at highest concentration tested” value [27] was 52.6%, the “% of cytotoxicity” value [28] was 11.2%-78.6% and the “% of cytotoxicity” value [29] was 46.6%-72.4%.
